How the values were obtained:
[1] = target: human type IIa topoisomerase (Homo sapiens, UniProt P11388); test: Relaxation assay of human topoisomerase IIa (supercoiled pHOT1 plasmid DNA, agarose gel); format: biochemical; conditions: compared with etoposide (Fig. S56)
Method: The concentrations 0.1, 0.5, 1, 1.5, 2, and 3 μM were taken for both compounds (Fig. 3).
The assay of human type IIa topoisomerase mediated relaxation of supercoiled plasmid DNA was performed using reaction buffer (20 μl) (5 mM dithiothreitol, 0.5 M Tris–HCl, pH 8.0, 20 mM ATP, 1.50 M NaCl, 300 μg ml^−1 BSA, and 100 mM MgCl2) having supercoiled pHOT1 plasmid DNA (500 ng) and human type IIa topoisomerase enzyme (4 units). The reaction mixtures were incubated for 30 min at 37 °C, followed by adding 10% sodium dodecyl sulfate (2 μl) to stop the reaction. Added 0.5 mg ml^−1 proteinase K (1 μl) to the reaction mixture and allowed to incubate for 15 min at 37 °C. Then, added loading buffer, i.e., 0.25% bromophenol blue and 50% glycerol (1 μl) to the reaction mixture and run on 1% agarose gel electrophoresis using TAE buffer (1.14 ml acetic acid, and 0.37 g EDTA pH 8.1, and 100 ml of 10× stock solution–4.8 g of Tris base). The gel containing DNA was stained with ethidium bromide, washed, and photographed using UV light.

[2] = target: T1, human serum albumin (HSA) (Homo sapiens, UniProt P02768); test: Energy transfer (FRET) between HSA and compounds; format: binding; conditions: compound acceptor; for E (efficiency of energy transfer) / R0 (critical distance, 50% efficiency of energy transfer): HSA donor
T1 sequence (P02768 25-609): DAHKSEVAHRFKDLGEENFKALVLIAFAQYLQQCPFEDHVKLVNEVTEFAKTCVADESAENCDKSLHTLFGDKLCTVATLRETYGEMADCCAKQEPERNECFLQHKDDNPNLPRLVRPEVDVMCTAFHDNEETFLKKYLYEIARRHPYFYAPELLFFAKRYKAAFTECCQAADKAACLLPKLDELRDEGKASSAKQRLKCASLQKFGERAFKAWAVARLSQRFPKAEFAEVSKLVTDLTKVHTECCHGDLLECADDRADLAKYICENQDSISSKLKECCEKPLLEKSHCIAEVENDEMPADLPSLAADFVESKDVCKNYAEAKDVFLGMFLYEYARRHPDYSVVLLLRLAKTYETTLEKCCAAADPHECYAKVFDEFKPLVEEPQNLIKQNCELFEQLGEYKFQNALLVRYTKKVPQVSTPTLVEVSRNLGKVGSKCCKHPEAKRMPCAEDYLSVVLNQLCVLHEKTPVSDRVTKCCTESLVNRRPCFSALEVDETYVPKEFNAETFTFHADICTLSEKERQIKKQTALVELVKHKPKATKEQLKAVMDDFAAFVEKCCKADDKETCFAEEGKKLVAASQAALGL
Text: Eqn (8)–(10) are used to calculate the values of overlap integral of an emission spectrum of donor with the absorption spectrum of the acceptor (J), the critical distance (50% efficiency of energy transfer, R0), efficiency of energy transfer (E), and the distance among donor and acceptor (r). […] The calculated distance between donor and acceptor for compounds 12 and 13 was found less than 8 nm, and both compounds follow 0.5R0 < r < 1.5R0.
The energy transfer study was accomplished by recording the HSA emission spectrum at 280 nm excitation wavelength and the absorption spectra of compounds 12 and 13.
The following eqn (8)–(10) were used to determine the donor to acceptor energy transfer (E), the critical distance required for energy transfer by 50% (R0), overlap integral of the emission spectrum of donor with the absorption spectrum of the acceptor (J), and distance among the donor and the acceptor (r):[39,57]8 [drawing 6] In this equation, F0 and F denote the emission intensities of HSA in free form and the presence of compounds 12 and 13, respectively.9 R0^6 = 8.8 × 10^−25k^2η^−4ϕJwhere k^2, η, ϕ denote the orientation factor of dipoles, refracted index for used medium, and fluorescence quantum yield of the donor.10 [drawing 7] In this equation, F(λ) denotes the emission intensity for the free form of the donor at the wavelength λ, whereas ε(λ) denotes the molar absorption coefficient of acceptor at the wavelength λ.

[3] = test system: A549 (lung) human cancer cell line; test: MTT cytotoxicity assay, A549; format: cell-based; conditions: Homo sapiens, A549, 48 h
Method: (§1) Human malignant cell lines, i.e., MCF7 (breast), HeLa (cervix), and A549 (lung), as well as non-cancerous human cell line Hek293 (kidney), were cultured using the Ham's media or DMEM having 10% FBS, […] streptomycin, 100 U ml^−1 penicillin, and 50 mM glutamine. For seeding of cells, 96 well plates were used, maintaining the density of […] cells per well with the help of DMEM as a media having 10% FBS cells. Then, seeded cells were incubated in an incubator having a 5% CO2 supply at 37 °C. Compounds were added to the wells at 1, 10, and 100 μM concentrations, and cells were incubated for 48 h at 37 °C and then added 10 μl of MTT to each well prepared from 5 mg ml^−1 stock solution using 1 × PBS buffer and were incubated for 4 h at 37 °C in the dark. DMSO (100 μl) was used to dissolve the formazan crystals. To determine the concentration of formazan, the crystal absorbance difference was recorded at 570 nm. The percentage of relative cell toxicity was calculated by using the following eqn (1):1 [drawing 1]

[4] = target: T1, human serum albumin (HSA); test: HSA fluorescence quenching (Stern–Volmer, modified Stern–Volmer, van't Hoff); format: binding; conditions: 308 K
[5] = target: T1, human serum albumin (HSA); test: Excited-state fluorescence lifetime of HSA; format: binding; conditions: compound 7 μM
Method: A fluorescence lifetime experiment was performed to discover the quenching mechanism of compounds 12 and 13 for interactions with HSA. The decay lifetime (τ) generally remains unaltered in ground state quenching while it gets changed in excited state quenching.[46,47] The fluorescence lifetime spectrum of HSA (7 μM) was performed upon increasing concentrations of compounds 12 and 13 (0–70 μM) (Fig. S65 ^†). […] Therefore, it can conclude that the fluorescence quenching of HSA by compounds 12 and 13 was characterized as a static quenching and thus formed a stable complex with HSA at the ground state.
Time-resolved fluorescence was recorded by taking a fixed amount of HSA (10 μM) with incremental additions of compounds (12 and 13) ([…]) by maintaining the ratio of HSA : compound = 1 : 0, 1 : 1, 1 : 5 and 1 : 10. The spectra were recorded at 345 nm emission wavelength in phosphate buffer of pH 7.4 at 298 K. To determine the average fluorescence lifetime (τ), the following eqn (7) was used.7 τ = ∑τiαiwhere τi and αi denote decay time and relative amplitude, respectively.

[6] = test system: HeLa (cervix) human cancer cell line; test: MTT cytotoxicity assay, HeLa; format: cell-based; conditions: Homo sapiens, 48 h
Method: as §1

[7] = target: T1, human serum albumin (HSA); test: Excited-state fluorescence lifetime of HSA; format: binding

Chain of human type IIa topoisomerase (P11388 whole entry): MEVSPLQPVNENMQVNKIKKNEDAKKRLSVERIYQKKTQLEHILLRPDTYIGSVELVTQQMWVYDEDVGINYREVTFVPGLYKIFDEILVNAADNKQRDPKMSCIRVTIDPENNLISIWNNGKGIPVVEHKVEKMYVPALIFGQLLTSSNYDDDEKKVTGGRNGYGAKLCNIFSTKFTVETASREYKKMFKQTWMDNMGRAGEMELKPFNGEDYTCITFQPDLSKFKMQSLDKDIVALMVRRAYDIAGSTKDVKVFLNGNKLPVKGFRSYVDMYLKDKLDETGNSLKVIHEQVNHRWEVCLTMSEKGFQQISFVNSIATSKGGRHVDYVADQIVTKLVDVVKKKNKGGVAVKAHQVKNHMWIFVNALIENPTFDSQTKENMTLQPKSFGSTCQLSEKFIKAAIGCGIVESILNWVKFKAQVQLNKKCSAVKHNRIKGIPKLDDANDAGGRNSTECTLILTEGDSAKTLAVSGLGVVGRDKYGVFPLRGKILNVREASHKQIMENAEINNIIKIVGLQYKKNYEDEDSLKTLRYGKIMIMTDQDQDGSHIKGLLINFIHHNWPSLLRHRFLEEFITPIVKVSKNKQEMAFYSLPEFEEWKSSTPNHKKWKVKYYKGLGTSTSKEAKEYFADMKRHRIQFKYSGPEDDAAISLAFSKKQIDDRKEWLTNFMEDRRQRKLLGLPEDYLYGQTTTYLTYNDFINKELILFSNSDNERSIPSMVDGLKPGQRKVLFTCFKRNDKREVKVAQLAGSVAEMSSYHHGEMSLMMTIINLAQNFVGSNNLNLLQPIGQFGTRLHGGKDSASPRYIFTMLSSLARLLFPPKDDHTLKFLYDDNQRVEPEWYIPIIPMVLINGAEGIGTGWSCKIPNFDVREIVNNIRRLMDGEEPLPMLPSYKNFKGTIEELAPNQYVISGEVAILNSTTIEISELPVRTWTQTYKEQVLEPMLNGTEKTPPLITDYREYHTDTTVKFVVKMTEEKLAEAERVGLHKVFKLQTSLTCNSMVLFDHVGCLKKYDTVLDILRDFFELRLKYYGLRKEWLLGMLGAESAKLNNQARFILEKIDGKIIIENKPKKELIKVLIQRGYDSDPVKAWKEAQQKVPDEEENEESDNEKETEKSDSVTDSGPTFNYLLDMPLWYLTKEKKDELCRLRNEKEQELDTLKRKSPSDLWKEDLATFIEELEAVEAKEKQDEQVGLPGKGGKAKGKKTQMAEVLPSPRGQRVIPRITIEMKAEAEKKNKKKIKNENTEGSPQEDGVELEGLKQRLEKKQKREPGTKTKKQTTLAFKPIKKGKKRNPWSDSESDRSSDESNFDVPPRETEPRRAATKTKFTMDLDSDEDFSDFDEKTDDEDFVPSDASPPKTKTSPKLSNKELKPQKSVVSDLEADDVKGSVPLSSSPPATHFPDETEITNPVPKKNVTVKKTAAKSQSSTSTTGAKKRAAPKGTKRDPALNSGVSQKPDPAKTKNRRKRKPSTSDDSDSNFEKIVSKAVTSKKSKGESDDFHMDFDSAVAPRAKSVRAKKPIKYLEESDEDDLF

inhibition of topoisomerase II relaxation ([1]; 1 μM)	inhibition of topoisomerase II relaxation ([1]; 5, 10 and 50 μM)	E (efficiency of energy transfer) [2]	R0 (critical distance, 50% efficiency of energy transfer) [2]	J (overlap integral of donor emission with acceptor absorption) [2]	r (distance among donor and acceptor) [2]	K SV (Stern–Volmer quenching constant) [4]	K q (bimolecular quenching rate constant) [4]	n (average number of binding sites) [4]	ΔG of HSA binding [4]	α 1 of HSA fluorescence decay [5]	α 2 of HSA fluorescence decay [5]	α 3 of HSA fluorescence decay [5]	τ 3 of HSA fluorescence decay [5]	τ (average fluorescence lifetime of HSA) [5]	melting point	τ 1 of HSA fluorescence decay ([7]; compound 7 μM)	τ 2 of HSA fluorescence decay ([7]; compound 7 μM)	Structure (SMILES)	IC50 [3]	IC50 [6]	further results
partially inhibitor	significant and active inhibitors	0.92	0.592 nm	1.04 × 10^−18 cm^3 L mol^−1	0.393 nm	5.19 10^6 M^−1	5.19 10^14 M^−1 s^−1	1.17	-8.87 kJ/M	0.42	0.20	0.38	0.80 ns	3.13 ns	292 to 295 °C	3.29 ns	7.32 ns	C=CCn1cc(-c2nc3ccccc3s2)c2cc(-c3ccc4c5c(cccc35)C(=O)N(CCO)C4=O)ccc21 [Compound 12, 6-(1-Allyl-3-(benzo[d]thiazol-2-yl)-1H-indol-5-yl)-2-(2-hydroxyethyl)-1H-benzo[de]isoquinoline-1,3(2H)-dione]	0.14 ± 0.01 µM	3.76 ± 0.2 µM	α 1 of HSA fluorescence decay ([7]; compound 35 μM): 0.41; α 2 of HSA fluorescence decay ([7]; compound 35 μM): 0.18; α 3 of HSA fluorescence decay ([7]; compound 35 μM): 0.40; τ 1 of HSA fluorescence decay ([7]; compound 35 μM): 3.37 ns; τ 2 of HSA fluorescence decay ([7]; compound 35 μM): 7.34 ns; τ 3 of HSA fluorescence decay ([7]; compound 35 μM): 0.86 ns; τ (average fluorescence lifetime of HSA) ([7]; compound 35 μM): 3.09 ns; α 1 of HSA fluorescence decay ([7]; compound 70 μM): 0.39; α 2 of HSA fluorescence decay ([7]; compound 70 μM): 0.20; α 3 of HSA fluorescence decay ([7]; compound 70 μM): 0.41; τ 1 of HSA fluorescence decay ([7]; compound 70 μM): 3.14 ns; τ 2 of HSA fluorescence decay ([7]; compound 70 μM): 7.03 ns; τ 3 of HSA fluorescence decay ([7]; compound 70 μM): 0.80 ns; τ (average fluorescence lifetime of HSA) ([7]; compound 70 μM): 2.97 ns
partially inhibitor	significant and active inhibitors	0.93	0.591 nm	1.039 × 10^−18 cm^3 L mol^−1	0.377 nm	2.38 10^6 M^−1	2.38 10^14 M^−1 s^−1	1.07	-7.93 kJ/M	0.41	0.23	0.36	0.84 ns	3.25 ns	282 to 285 °C	3.19 ns	7.17 ns	C#CCN1C(=O)c2cccc3c(-c4ccc5c(c4)c(-c4nc6ccccc6s4)cn5CC=C)ccc(c23)C1=O [Compound 13, 6-(1-Allyl-3-(benzo[d]thiazol-2-yl)-1H-indol-5-yl)-2-(prop-2-yn-1-yl)-1H-benzo[de]isoquinoline-1,3(2H)-dione]	0.31 ± 0.01 µM	3.64 ± 0.19 µM	α 1 of HSA fluorescence decay ([7]; compound 35 μM): 0.39; α 2 of HSA fluorescence decay ([7]; compound 35 μM): 0.24; α 3 of HSA fluorescence decay ([7]; compound 35 μM): 0.37; τ 1 of HSA fluorescence decay ([7]; compound 35 μM): 3.12 ns; τ 2 of HSA fluorescence decay ([7]; compound 35 μM): 6.97 ns; τ 3 of HSA fluorescence decay ([7]; compound 35 μM): 0.85 ns; τ (average fluorescence lifetime of HSA) ([7]; compound 35 μM): 3.19 ns; α 1 of HSA fluorescence decay ([7]; compound 70 μM): 0.39; α 2 of HSA fluorescence decay ([7]; compound 70 μM): 0.19; α 3 of HSA fluorescence decay ([7]; compound 70 μM): 0.41; τ 1 of HSA fluorescence decay ([7]; compound 70 μM): 3.36 ns; τ 2 of HSA fluorescence decay ([7]; compound 70 μM): 7.25 ns; τ 3 of HSA fluorescence decay ([7]; compound 70 μM): 0.86 ns; τ (average fluorescence lifetime of HSA) ([7]; compound 70 μM): 3.08 ns

Source: PMC8694140, “Synthesis and photobiological applications of naphthalimide–benzothiazole conjugates: cytotoxicity and topoisomerase IIα inhibition” (RSC Advances, 2021)
